The values below come from ChEMBL document CHEMBL3792297, “Studies on phenothiazines: New microtubule-interacting compounds with phenothiazine A-ring as potent antineoplastic agents” (Bioorg Med Chem, 2016).

For assay [1], the species on record is Ovis aries. The experiment in a line: Inhibition of sheep brain tubulin polymerization at 100 uM by DAPI staining-based fluorimetric method.
Assay [2] is described as follows: Inhibition of sheep brain tubulin polymerization by DAPI staining-based fluorimetric method. Set-up: species or system Ovis aries.
Assay [3] in a line: Inhibition of sheep brain tubulin polymerization preincubated for 1 hr measured after 30 mins by turbidimetric-spectrophotometric method. Set-up: species or system Ovis aries.
The nature of assay [4]: Growth inhibition of human OVCAR3 cells after 48 hrs by SRB assay. The conditions noted are these: OVCAR-3, 48 h. In kind it is functional. For orientation: Sulforhodamine B stains cellular protein and so reports cell mass.
Assay [5] relates to A498. Nature of the assay: Growth inhibition of human A498 cells after 48 hrs by SRB assay. In kind it is functional. To be noted: A498, 48 h.
Assay [6] in a line: Growth inhibition of human DU145 cells after 48 hrs by SRB assay. Format: functional. To be noted: DU-145, 48 h.
Assay [7] in a line: Growth inhibition of human SF295 cells after 48 hrs by SRB assay. The conditions noted are these: SF-295, 48 h. Format: functional.
Assay [8] addresses Tubulin (Bos taurus, UniProt Q6B856+Q862L2+Q862F3). Nature of the assay: Inhibition of bovine tubulin polymerization preincubated for 30 mins followed by GTP addition measured after 20 mins by spectrophotometric method. Format: protein assay.

Molecules are shown by their SMILES.

One may read the inhibition as the percentage by which the read-out fell short of the control. The compound `S=C(c1ccc2c(c1)Sc1ccccc1N2)c1c[nH]c2ccccc12` had an inhibition in assay [1] of 10%.
Still for that read-out and setting: to `Cc1cc(C(=O)N2c3ccccc3Sc3ccccc32)ccc1Br` belongs 43%.
As usually defined, the IC50 is the concentration needed to halve the response being measured. Low values mean higher potency, high ones lower potency. On to `COc1cc([C@@H]2c3cc4c(cc3C[C@H]3COC(=O)[C@@H]32)OCO4)cc(OC)c1OC` [DESOXYPODOPHYLLOTOXIN], for which, in assay [1], the inhibition was found to be 100%. For the same compound, the IC50 in assay [2] amounted to 1.8 µM.
With `C=C(c1ccc(OC)c(O)c1)c1cc(OC)c(OC)c(OC)c1`, in assay [3], the IC50 came out at 1.5 µM.
As to `O=C(c1ccc(OC(F)(F)F)c(F)c1)N1c2ccccc2Sc2ccccc21`, the inhibition in assay [1] is 48%.
On to `O=C(c1ccc(F)cc1Cl)N1c2ccccc2Sc2ccccc21`, for which the inhibition in assay [1] worked out at 44%.
Same read-out and setting: to `COc1ccc(C(=S)N2c3ccccc3Sc3ccccc32)cc1F` belongs 14%.
Take `COc1ccc(C(=O)N2c3ccccc3Sc3ccccc32)cc1N`: the inhibition in assay [1] stood at 95%. In assay [2], this compound displayed an IC50 of 9.5 µM.
The GI50 is the concentration at which growth is held to half of that of the control. A higher GI50 goes with less potent growth inhibition. For `COc1ccc(C(=O)c2cc(OC)c(OC)c(OC)c2)cc1O` [PHENSTATIN], the GI50 in assay [4] was 0.0023 µM; in assay [5], 0.38 µM; in assay [6], 0.034 µM; in assay [7], 0.052 µM. Also, the IC50 in assay [8] was 1 µM; in assay [2], 3.4 µM. This compound registered an inhibition in assay [1] of 99%.
